Measurements taken from patent US4201784A, “Substituted 2-[2'-(5"-nitrofuryl-2")vinyl-and 4'-(5"-nitrofuryl-2"-1,3-butadieryl]quinoline-4-carboxylic acid amides and salts thereof” (Institut Organicheskogo Sinteza Akademii Nauk Latviiskoi SSR, priority 1977, dated 1980).

What was measured:
[1] = tested on: Brain; test: In vivo biosynthesis of DNA, RNA and protein in brain; parameters: species or system mice; conditions: 24 hours, intraperitoneal 28 mg/kg
Protocol: (§1) The influence of giniquine on biosynthetic processes in the in vivo tests was studied on common white mice of a mass of 25-35 g with Ehrlich ascitic tumor.
(§2) The mice were divided into two groups. The animals in the first group were given a single injection of the preparation in differing doses, and the animals in the second group were treated with distilled water. Three series of experiments were conducted. In the first series of tests (16 mice) the preparation was injected in a dose of 100 mg/kg ([…] dose), and the animals were decapitated one hour after the injection; in the second test series (16 mice) the animals were slaughtered 3 hours after the injection with other conditions being the same. In the third test series (35 mice) the influence of giniquine on plastic metabolism in tumor cells and normal tissues was studied 24 hours after the injection of a 0.33% solution of the preparation in a dose of 28 mg/kg (therapeutical dose).
(§3) Labeled precursors of nucleic acids and protein were injected intraperitoneally one hour before the slaughter of the animals (50 μc/100 g). Ascitic fluid, as well as liver and spleen, mucous membrane of small intestine, brain, kidneys and lungs were taken for analysis. 10% suspension was prepared from tumor cells, and 10% homogenates were prepared from tissues in a physiological solution.
(§4) Tumor cells and tissue homogenates for precipitation of nucleic acids were treated with 57% perchloric acid (10:1). […] Radioactivity of DNA and RNA fractions was measured by means of a liquid scintillation counter. The quantity of DNA and RNA was determined by spectrophotometry: the quantity of DNA was determined with diphenylamine, and RNA- with orcin.
(§5) To prepare protein hydrolysate, the suspension of tumoral cells and homogenates of normal tissues were treated with cool 10% trichloracetic acid (1:4), with subsequent centrifuging at 2000 g for ten minutes. […] The radioactivity was measured by means of a liquid scintillation counter. Protein was quantitatively determined by spectrophotometry using a microbiuret reaction.

[2] = tested on: lymphatic leukemia L-1210; test: Antitumor activity, lymphatic leukemia L-1210; assay type: in vivo, mice
Protocol: (§6) Apart from the tests on Ehrlich ascitic tumor, giniquine was studied on twelve more inoculated tumors. Seven tumors (melanoma B16, sarcoma AK, large intestine carcinoma acatol-1, sarcoma 180, adenocarcinoma 755, Lewis lung carcinoma and sarcoma 37) were inoculated subcutaneously with 50 mg of tumoral cells per mouse. Four tumors (lymphatic leukemies L 5178, L 5178Y, L 1210 and P-388) were inoculated intraperitoneally with 10^6 cells per mouse. One tumor (La, hemocytoblastosis) was inoculated intraperitoneally by injecting 50 mg of cell suspension of spleen and liver of mice suffering La hemocytoblastosis, per mouse. Giniquine was injected intraperitoneally five times for seven days: 1,2,3,4,7 days or 3,4,5,6,7 days after the implantation of tumor. The rate of deceleration of the tumor growth was established 14 days after the ultimate injection of giniquine; life of test animals was recorded for 60 days.

[3] = LD50 / toxicity, mice with 7-days Ehrlich ascitic tumor; assay type: in vivo; conditions: for LD50: mouse, in vivo
[4] = tested on: tumor cells; test: Antiblastic activity and selectivity of action on tumor cells (general statement)
[5] = tested on: Kidneys; test: In vivo biosynthesis of DNA, RNA and protein in kidneys; parameters: species or system mice; conditions: 24 hours, intraperitoneal 28 mg/kg
Protocol: as §1, §2, §3, §4, §5

[6] = tested on: Spleen; test: In vivo biosynthesis of DNA, RNA and protein in spleen; parameters: species or system mice; conditions: for Incorporation of 2-^14 C-leucine in protein / Incorporation of 2-^14 C-thymidine in DNA: intraperitoneal 100 mg/kg
Protocol: as §1, §2, §3
Tumor cells and tissue homogenates for precipitation of nucleic acids were treated with 57% perchloric acid (10:1). Acid-soluble fraction was removed by washing the precipitate twice with 5 ml of 5% perchloic acid with subsequent centrifuging at 2000 g. Nucleic acids were hydrolyzed by the Schneider method. Radioactivity of DNA and RNA fractions was measured by means of a liquid scintillation counter. The quantity of DNA and RNA was determined by spectrophotometry: the quantity of DNA was determined with diphenylamine, and RNA- with orcin.
To prepare protein hydrolysate, the suspension of tumoral cells and homogenates of normal tissues were treated with cool 10% trichloracetic acid (1:4), with subsequent centrifuging at 2000 g for ten minutes. The precipitate was washed twice with 5 ml of 10% trichloracetic acid. Lipoids were removed by a consecutive treatment of the precipitate with ethanol, saturated solution of sodium acetate, a mixture of ethanol and ether (3:1) and ether. To prepare protein hyhdrolysate, 4 ml of 0.3N KOH were added to the precipitate, and the mixture was placed into a thermostatic chamber at 37° C. for 60 minutes. The radioactivity was measured by means of a liquid scintillation counter. Protein was quantitatively determined by spectrophotometry using a microbiuret reaction.

[7] = tested on: adenocarcinoma 755; test: Antitumor activity, adenocarcinoma 755; assay type: in vivo, mice
Protocol: as §6

[8] = tested on: Mucous membrane of small intestine; test: In vivo biosynthesis of DNA, RNA and protein in mucous membrane of small intestine; parameters: species or system mice; conditions: 24 hours, intraperitoneal 28 mg/kg
Protocol: as §1, §2, §3, §4, §5

[9] = tested on: sarcoma AK; test: Antitumor activity, sarcoma AK; assay type: in vivo, mice
Protocol: as §6

[10] = tested on: lymphatic leukemia L 5178; test: Antitumor activity, life prolongation, lymphatic leukemia L 5178; assay type: in vivo, mice
Protocol: as §6

[11] = LD50, intact mice; conditions: mouse, in vivo, ip, intraperitoneal
[12] = tested on: sarcoma 180; test: Antitumor activity, sarcoma 180; assay type: in vivo, mice
Protocol: as §6

[13] = tested on: Ehrlich ascitic tumor; test: Influence of fluorafur on antitumor activity of giniquine, Ehrlich ascitic tumor; assay type: in vivo, mice
Protocol: In some experiments the influence of the known preparation fluorofur on the antitumoral activity of giniquine was studied. […] The tests were made on Ehrlich ascitic tumor. The preparations were injected 1,2,3,4 and 7 days after the implantation of tumor. Giniquine was injected intraperitoneally and fluorafur-subcutaneously.
giniquine was injected intraperitoneally, and fluorafursubcutaneously.

[14] = 24 hours, intraperitoneal 28 mg/kg
[15] = BDF1 female mice, intraperitoneal, days 1,2,3,4,7, optim. daily dose 6.0 mg/kg
[16] = common female mice, intraperitoneal, days 3,4,5,6,7, optim. daily dose 10.0 mg/kg

CCN(CC)CCCC(C)NC(=O)c1cc(C=Cc2ccc([N+](=O)[O-])o2)nc2ccccc12 (stereo not drawn) [giniquine, 2-[2'-(5"-nitrofuryl-2")vinyl]quinoline-4-carboxylic acid (α-methyl-δ-diethylaminobutyl)amide triphosphate]
Incorporation of specific precursors, DNA [1]: 125.0 % of control
Incorporation of specific precursors, Protein [1]: 105.0 % of control
Incorporation of specific precursors, RNA [1]: 124.0 % of control
Max. life prolong. ([2]; BDF1 male mice, intraperitoneal, days 1,2,3,4,7, optimum daily dose 6.0 mg/kg): 15%
sensitivity (in words) ([2]; L-1210): practically insensitive
toxicity compared to intraperitoneal injection ([3]; intravenous injection): five times greater
LD50 ([3]; ip, intraperitoneal, ten injections, female): 10 mg/kg
LD50 ([3]; ip, intraperitoneal, ten injections, male): 7 mg/kg
LD50 ([3]; iv, single injection, female): 17.5 mg/kg
LD50 ([3]; iv, single injection, male): 20 mg/kg
antiblastic / antitumoral activity [4]: highly active antitumoral preparation
selective (contact) action on tumor cells [4]: selective action on tumor cells
Incorporation of specific precursors, DNA [5]: 178.0 % of control
Incorporation of specific precursors, Protein [5]: 105.0 % of control
Incorporation of specific precursors, RNA [5]: 148.0 % of control
Incorporation of 2-^14 C-leucine in protein ([6]; 1 h): 97.0 % of control
Incorporation of 2-^14 C-thymidine in DNA ([6]; 1 h): 120.0 % of control
Incorporation of 2-^14 C-leucine in protein ([6]; 3 h): 40.0 % of control
Incorporation of 2-^14 C-thymidine in DNA ([6]; 3 h): 116.0 % of control
Incorporation of specific precursors, DNA [6, 14]: 330.0 % of control
Incorporation of specific precursors, Protein [6, 14]: 93.0 % of control
Incorporation of specific precursors, RNA [6, 14]: 162.0 % of control
inhibition at 100 mg/kg ([6]; Mus musculus, 3 h, three hours, 100 mg/kg): 60%
inhibition of biosynthesis of protein (in words) ([6]; one hour, 100 mg/kg): not observed or inappreciable
stimulation of biosynthesis of DNA ([6]; one hour, 100 mg/kg): 20%
stimulation of biosynthesis of DNA ([6]; three hours, 100 mg/kg): 16%
Deceleration of tumor growth [7, 15]: 28%
Max. prolongation of life [7, 15]: 25%
antitumor effect (in words) ([7]; adenocarcinoma 755): slight antitumor effect
Incorporation of specific precursors, DNA [8]: 386.0 % of control
Incorporation of specific precursors, Protein [8]: 122.0 % of control
Incorporation of specific precursors, RNA [8]: 158.0 % of control
Deceleration of tumor growth ([9]; common female mice, intraperitoneal, days 3,4,5,6,7, optim. daily dose 2.2 mg/kg): 46%
Max. prolongation of life [9, 16]: 15%
antitumor effect (in words) ([9]; sarcoma AK): slight antitumor effect
Max. life prolong. ([10]; common female mice, intraperitoneal, days 1,2,3,4,7, optimum daily dose 10.0 mg/kg): 30%
antiblastic activity / sensitivity (in words) ([10]; lymphatic leukemia L 5178): slight antitumor effect
LD50 ([11]; single injection, female): 33 mg/kg
LD50 ([11]; single injection, male): 30 mg/kg
LD50 ([11]; ten injections, female): 8 mg/kg
LD50 ([11]; ten injections, male): 7.3 mg/kg
Deceleration of tumor growth ([12]; common female mice, intraperitoneal, days 3,4,5,6,7, optim. daily dose 6.0 mg/kg): 37%
Max. prolongation of life [12, 16]: 23%
antitumor effect / sensitivity (in words) ([12]; sarcoma 180): slight antitumor effect
Life prolongation ([13]; Test No. 1, giniquine 3.6 mg/kg daily): 55%
Life prolongation ([13]; Test No. 1, giniquine 6.0 mg/kg daily): 67%
Life prolongation ([13]; Test No. 1, giniquine 10.0 mg/kg daily): 38%
Life prolongation ([13]; Test No. 1, giniquine 17.0 mg/kg daily): -5%
Life prolongation ([13]; Test No. 2, giniquine 3.6 mg/kg daily): 45%
Life prolongation ([13]; Test No. 2, giniquine 6.0 mg/kg daily): 98%
Life prolongation ([13]; Test No. 2, giniquine 10.0 mg/kg daily): 5%
Life prolongation ([13]; Test No. 2, giniquine 17.0 mg/kg daily): -48%
